Patent US20240238459A1, “Granzyme-Activatable Membrane-Interacting Peptides and Methods of Use” (priority 2021, published 2024)
Peptide text beside a SMILES is read from it. * marks the point of attachment. DOTA = O=C(O)CN1CCN(CC(=O)O)CCN(CC(=O)*)CCN(CC(=O)O)CC1; Ahx = NCCCCCC(=O)O

What was measured:
[1] = system: subcutaneous CT26 tumors; assay: PET/CT, biodistribution and autoradiography in mice bearing CT26 tumors treated with vehicle or CPI
Protocol: (§1) The effect of immunomodulatory therapies on ^64Cu-GRIP B biodistribution was next evaluated in mice bearing subcutaneous CT26 tumors, a mouse colorectal cancer cell line that responds to immunomodulatory therapy. Mice were treated with three intraperitoneal infusions of vehicle or anti-PD1 plus anti-CTLA4 CPIs over 11 days. The radiotracer was injected on day 14, and tumor uptake was monitored over several time points out to 24 hours post injection on PET.
(§2) A biodistribution study at 2 hours post injection was performed to determine relative changes in tracer uptake between tissues in the vehicle and treated groups.
(§3) All animal experiments were approved by the Institutional Animal Care and Use Committee at UCSF. Four to six week old male or female balb/c mice and C57BL6/J mice were purchased from Jackson Laboratory and housed with free access to the water and food. All mice were inoculated with 5×10^6 CT26, MC38, or EMT6 cells in a mixture of media and Matrigel (Corning) (v/v 1:1) subcutaneously into the left shoulder. Anti-mouse PD-1 (CD279) (BE0146) and anti-mouse CTLA-4 (CD152) (BE0164) were purchased from Bio X Cell and stored at 4° C. during the treatment studies. Mice bearing subcutaneous tumors were received anti-mouse CTLA-4 (200 ug) or/and anti-mouse PD-1 (200 ug) and as a combination therapy or PBS as the vehicle on days 5, 8, 11 following the tumor inoculation. Mice were weighed and the tumor volume were measured with calipers on the same day of the treatment. On day 14, all mice were used for PET/CT or BioD studies.
(§4) ^64Cu-L-GRIP B or ^64Cu-D-GRIP B (˜100 μCi/mouse) in 100-150 μL of 10% DMSO and 10% Tween 80 in saline was injected via tail vein. After a period of uptake time, mice were anesthetized with isoflurane (˜2%), and imaged with a microPET/CT scanner (Inveon, Siemens). For static imaging, mice were scanned for 30 min for PET data acquisition and 10 min for CT data acquisition. For the dynamic acquisitions, the mice were anesthetized, positioned on the scanner bed, and injected intravenously with radiotracer. The dynamic acquisition was performed for scanned for 60 min followed by a 10 min CT acquisition.
(§5) At dedicated time points post radiotracer injection, mice were euthanized with CO2(g) asphyxiation, and the blood was collected by direct cardiac puncture. Tissues were harvested, weighed and counted on a gamma counter (Hidex). The amount of radioactivity in the tissues was determined by comparison with a standard of known activity. The samples were decay-corrected and expressed as the percentage of the injected dose/weight of the harvested tissues (% ID/g).
(§6) Tumors or designated tissue were flash frozen in OCT in dry ice. The tissues were sectioned with a microtome (Leica) into slices with 10-20 um thickness and directly mounted on glass slides (VWR). GE Storage Phosphor Screen were exposed by such slides with radioactive tissue. After 10 half-live of copper-64, the screen was developed on a phosphorimager (Typhoon 9400). The images were further analyzed by using Fiji software.

[2] = as above; conditions: both, mouse, in vivo, iv, total radioactivity
Protocol: as §1, §2, §3, §4, §5, §6

[3] = target: recombinant human GZMB (Homo sapiens, UniProt P10144); assay: Cleavage of GRIP B / ^64Cu-GRIP B by recombinant human GZMB (rad-HPLC); format: biochemical; conditions: incubation with recombinant human GZMB (400 nM per FIG. 2D legend); product comigrated with cold cleaved DOTA-peptide fragment
[4] = system: E. coli; assay: PET in E. coli myositis model (live vs heat killed, vs LPS); format: in vivo, mouse
Protocol: ^64Cu-GRIP B was also tested to determine whether it can detect granzyme B secreted from activated immune cells attempting to combat bacterial infections. A cohort of mice bearing bilateral deltoid implants of live E. coli or heat killed E. coli was established to test the kinetics of tracer uptake (FIG. 10).
Next, the granzyme B responses to live E. coli versus treatment with a bolus of the endotoxin LPS were compared. Three to four hours after implantation, mice received ^64Cu-GRIP B and were imaged serially (FIG. 12).

[5] = system: K. pneumoniae; assay: PET in K. pneumoniae myositis model; format: in vivo, mouse
Source text: Performing additional myositis studies with other bacterial strains yielded unexpected and variable granzyme “responses” on PET. […] In both mouse cohorts, radiotracer uptake in the treated muscles was higher than in the normal muscle.

[6] = system: M. marinum; assay: PET in M. marinum myositis model; format: in vivo, mouse
Source text: Neither M. marinum nor the L. monoctyogenes induced ^64Cu-GRIP B uptake in live bacterial abscesses compared to heat killed controls.

[7] = system: virus; assay: PET and biodistribution in viral pneumonia model; conditions: biodistribution; including spleen, liver and blood pool
Source text: In collaboration with the Looney lab at UCSF, mice received an intranasal instillation of virus or sham, and were imaged with ^64Cu-GRIP B at 10 days post infection (the time point at which peak recruitment of T cells to the lungs occurs).

[8] = target: T1, secreted GZMB (Mus musculus, UniProt P04187); assay: PET/CT and biodistribution after intratracheal LPS instillation; format: in vivo
T1 construct: from tissue; host or cells: live wild type mice; lungs and other organs after intratracheal LPS
T1 sequence (P04187 21-247): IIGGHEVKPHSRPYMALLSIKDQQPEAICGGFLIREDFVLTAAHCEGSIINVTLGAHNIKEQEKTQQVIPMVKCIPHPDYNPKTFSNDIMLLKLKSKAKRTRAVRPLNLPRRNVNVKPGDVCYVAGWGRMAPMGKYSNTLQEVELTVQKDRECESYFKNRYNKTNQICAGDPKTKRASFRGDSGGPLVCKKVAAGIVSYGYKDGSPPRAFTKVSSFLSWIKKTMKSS
Protocol: Though not well defined, non-cytotoxic functions for secreted GZMB have been proposed in several physiological processes, for example inflammation. To test if ^64Cu-GRIP B can localize potentially pathogenic reservoirs of secreted GZMB due to inflammation, ^64Cu-GRIP B PET/CT was performed on wild type mice that had received intratracheal instillations of lipopolysaccharide (LPS). PET/CT was performed four days after the instillation, a time point at which T cell recruitment to the lungs has occurred. […] Since 3 mg/kg LPS can trigger systemwide T cell activation, radiotracer uptake was examined in a larger panel of mouse organs. […] Remarkably, the systemwide impact on T cell activation due to the intratracheal instillation of LPS was also visually obvious by comparing maximum intensity projections between treatment arms (FIG. 6, panel E).

[9] = biodistribution at 2 hours post injection

Sequence of recombinant human GZMB (P10144 21-247): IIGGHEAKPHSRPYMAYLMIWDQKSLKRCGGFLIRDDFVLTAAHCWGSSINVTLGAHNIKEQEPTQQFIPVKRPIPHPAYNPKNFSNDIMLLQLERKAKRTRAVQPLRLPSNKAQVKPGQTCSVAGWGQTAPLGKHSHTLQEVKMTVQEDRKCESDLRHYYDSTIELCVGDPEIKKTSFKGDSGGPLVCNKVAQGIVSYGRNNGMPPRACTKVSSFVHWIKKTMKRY

Question: With `CC[C@H](C)[C@H](NC(=O)[C@H](CCCCN)NC(=O)CNC(=O)[C@H](CC(C)C)NC(=O)[C@H](Cc1ccccc1)NC(=O)[C@H](CCCCN)NC(=O)[C@H](CO)NC(=O)[C@H](Cc1ccccc1)NC(=O)[C@H](Cc1c[nH]c2ccccc12)NC(=O)[C@H](CCC(N)=O)NC(=O)[C@@H](NC(=O)[C@H](Cc1ccccc1)NC(=O)CCCCCNC(=O)CN1CCN(CC(=O)O)CCN(CC(=O)O)CCN(CC(=O)O)CC1)C(C)C)C(=O)N[C@@H](CCC(=O)O)C(=O)N1CCC[C@H]1C(=O)N[C@@H](CC(=O)O)C(=O)N[C@H](C(=O)N[C@@H](CO)C(=O)N[C@@H](CCC(N)=O)C(=O)N[C@H](C(=O)N[C@@H](CCC(N)=O)C(=O)N[C@@H](CC(=O)O)C(=O)N1CCC[C@H]1C(=O)N[C@@H](CC(N)=O)C(=O)N[C@@H](CC(=O)O)C(=O)N[C@@H](CCC(N)=O)C(=O)N[C@@H](Cc1ccc(O)cc1)C(=O)N[C@@H](CCC(=O)O)C(=O)N1CCC[C@H]1C(=O)N[C@@H](Cc1ccccc1)C(=O)O)C(C)C)C(C)C` [^64Cu-GRIP B, metal not drawn] ({DOTA-Ahx}-FVQWFSKFLGKIEPDVSQVQDPNDQYEPF-OH) as the compound, how does the “time course of uptake in treated tumors” value ([1]; CPI (anti-PD1 plus anti-CTLA4) treated, static PET/CT ROI analysis) read?
Answer: steadily rose from 0.5 to 2-4 hours post injection

Question: And the “persistence of radioactivity in tumors” value ([1]; CPI treated, PET)?
Answer: persisted in tumors out to 24 hours post injection

Question: And the “digital autoradiography signal, treated versus control tumor” value ([1]; CT26 tumor slices, co-aligned with GZMB and CD3)?
Answer: significantly higher

Question: And the “tumoral uptake, CPI versus vehicle treated arm” value ([1]; PET, 2 hours post injection)?
Answer: significantly higher

Question: What about the “induction of radiotracer uptake in tumors, treated compared to control mice” value [1, 9] of the same compound?
Answer: ~50%

Question: And the “tracer uptake within the spleen, treated versus vehicle” value [1, 9]?
Answer: significant increase

Question: What about the “radiotracer uptake in vehicle tumors by comparison with CPI treated” value ([1]; vehicle treated mice, dynamic PET) of the same compound?
Answer: significantly lower and did not change over time

Question: And the “correlation of tumor to blood ratios with percent change in tumor volume” value ([1]; wild type mice, day 11)?
Answer: significantly correlated

Question: What about the “correlation of tumoral uptake with percent change in tumor volume” value ([1]; wild type mice, day 11 compared to day 0) of the same compound?
Answer: significantly correlated

Question: What about the tissue uptake per volume at 10 min [2] of the same compound?
Answer: ~5 %ID/mL

Question: What about the “time to conversion to one radiolabeled product” value [3] of the same compound?
Answer: ≤ 30 min

Question: What about the “uptake in live abscess compared to site of heat killed bacterial implantation” value ([4]; E. coli, bilateral deltoid implants) of the same compound?
Answer: significantly higher

Question: And the “time course of tracer uptake in the myositis lesion” value ([4]; live E. coli deltoid implant)?
Answer: increased out to 5 hours and persisted to at least 24 hours post injection

Question: What about the “radiotracer uptake, live E. coli abscess versus bolus of LPS” value ([4]; tracer three to four hours after implantation, serial imaging) of the same compound?
Answer: differences in radiotracer uptake were detected from 6-24 hours post injection

Question: What about the “uptake in treated muscles versus normal muscle” value [5] of the same compound?
Answer: higher

Question: What about the “uptake in live bacterial infection versus contralateral heat killed bacteria” value ([5]; deltoid muscles) of the same compound?
Answer: higher

Question: And the “radiotracer uptake compared to normal muscle” value [6]?
Answer: significant increase

Question: And the “uptake in live bacterial abscesses compared to heat killed controls” value [6]?
Answer: did not impact

Question: What about the “relative radiotracer uptake per organ, viral infection” value [7] of the same compound?
Answer: higher radiotracer uptake in numerous tissues

Question: And the normal tissue biodistribution (biodistribution out to 24 hours post injection)?
Answer: highest level of tissue-associated activity in the kidney and liver

Question: And the “dominant mode of clearance” value (intravenous, C57B16/J mice, dynamic PET)?
Answer: renal

Question: What about the “autoradiography of the lungs, LPS treated” value ([8]; co-localized with GZMB and CD3 staining) of the same compound?
Answer: visually higher radiotracer binding

Question: What about the “ex vivo biodistribution, LPS treated versus vehicle mice” value ([8]; either dose, including spleen and thymus) of the same compound?
Answer: significantly higher in numerous tissues

Question: What about the “radiotracer accumulation in the lungs, LPS compared to vehicle” value ([8]; low (0.1 mg/kg) and high (3 mg/kg) doses of LPS, four days after instillation, ROI analysis) of the same compound?
Answer: significantly higher
